From ChEMBL document CHEMBL3769313, “Synthesis, structural characterization, docking, lipophilicity and cytotoxicity of 1-[(1R)-1-(6-fluoro-1,3-benzothiazol-2-yl)ethyl]-3-alkyl carbamates, novel acetylcholinesterase and butyrylcholinesterase pseudo-irreversible inhibitors” (Bioorg Med Chem, 2016)
Activity calls are given as the source filed them. The rule behind the calls is not given here.

How the values were obtained:
[1] = Selectivity ratio of IC50 for electric eel AChE to IC50 for equine serum BChE
[2] = n-Octanol-water partition coefficient, log P of the compound after 15 mins by shake flask method; format: physicochemical
[3] = biological target: Cholinesterase (Equus caballus, UniProt P81908); assay: Inhibition of equine serum BChE by spectrophotometric-based Ellman's method
[4] = biological target: Acetylcholinesterase (Electrophorus electricus, UniProt O42275); assay: Inhibition of electric eel AChE by spectrophotometric-based Ellman's method
[5] = biological target: Acetylcholinesterase (Torpedo californica, UniProt P04058); assay: Pseudo-irreversible inhibition of Torpedo californica AChE using acetylthiocholine as substrate by cornish bowden plot analysis; design: species or system Tetronarce californica
[6] = test system: SK-BR-3; assay: Cytotoxicity against human SK-BR-3 cells assessed as decrease in cell proliferation index at 250 uM by real-time cell analysis; format: cell-based; settings: sk-br-3, 250 µM, TDE = time-dependent effect
[7] = Cytotoxicity against human Jurkat cells assessed as cell viability at 100 uM after 48 hrs by XTT assay relative to control; format: cell-based; settings: read-out: Activity
[8] = biological target: Acetylcholinesterase (Electrophorus electricus) (UniProt O42275); assay: Potency index, ratio of rivastigmine IC50 to compound IC50 for electric eel AChE
[9] = test system: SK-BR-3; assay: Cytotoxicity against human SK-BR-3 cells assessed as decrease in cell proliferation index at 1 to 100 uM after 91 hrs by real-time cell analysis; format: cell-based; settings: sk-br-3, 91 h
[10] = Cytotoxicity against human Jurkat cells assessed as cell viability at 250 uM after 48 hrs by XTT assay relative to control; format: cell-based; settings: read-out: Activity
[11] = Cytotoxicity against human Jurkat cells assessed as cell viability at 10 uM after 48 hrs by XTT assay relative to control; format: cell-based; settings: read-out: Activity
[12] = Cytotoxicity against human Jurkat cells assessed as cell viability at 1 uM after 48 hrs by XTT assay relative to control; format: cell-based; settings: read-out: Activity
[13] = Cytotoxicity against human Jurkat cells assessed as cell viability at 50 uM after 48 hrs by XTT assay relative to control; format: cell-based; settings: read-out: Activity
[14] = biological target: Acetylcholinesterase (Electrophorus electricus) (UniProt O42275); settings: 6 to 10 uM
Description: Pseudo-irreversible inhibition of electric eel AChE at 6 to 10 uM by spectrophotometric-based Ellman's method

[15] = biological target: Acetylcholinesterase (Electrophorus electricus) (UniProt O42275); assay: Pseudo-irreversible inhibition of electric eel AChE at 4 to 8 uM by spectrophotometric-based Ellman's method
[16] = biological target: Acetylcholinesterase (Electrophorus electricus) (UniProt O42275); assay: Pseudo-irreversible inhibition of electric eel AChE at 5 to 9 uM by spectrophotometric-based Ellman's method
[17] = test system: SK-BR-3; assay: Cytotoxicity against human SK-BR-3 cells assessed as decrease in cell proliferation index at 250 uM after 91 hrs by real-time cell analysis; format: cell-based; settings: sk-br-3, 91 h

Chain of Cholinesterase (P81908 whole entry): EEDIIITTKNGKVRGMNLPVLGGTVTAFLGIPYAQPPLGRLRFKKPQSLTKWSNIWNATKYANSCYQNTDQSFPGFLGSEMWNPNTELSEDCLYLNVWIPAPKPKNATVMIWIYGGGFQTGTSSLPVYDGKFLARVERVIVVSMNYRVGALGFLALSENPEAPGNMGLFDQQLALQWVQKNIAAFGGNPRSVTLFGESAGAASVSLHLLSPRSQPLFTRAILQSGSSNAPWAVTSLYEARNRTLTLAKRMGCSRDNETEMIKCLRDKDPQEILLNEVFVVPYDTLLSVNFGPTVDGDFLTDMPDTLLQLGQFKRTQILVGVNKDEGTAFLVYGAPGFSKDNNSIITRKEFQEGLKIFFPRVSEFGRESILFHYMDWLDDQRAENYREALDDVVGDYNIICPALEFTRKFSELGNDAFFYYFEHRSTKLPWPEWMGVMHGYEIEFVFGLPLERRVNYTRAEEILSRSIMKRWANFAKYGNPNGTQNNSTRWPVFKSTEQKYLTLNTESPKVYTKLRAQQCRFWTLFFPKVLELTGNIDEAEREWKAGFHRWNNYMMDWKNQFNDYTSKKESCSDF
Chain of Acetylcholinesterase (Electrophorus electricus, UniProt O42275) (O42275 whole entry): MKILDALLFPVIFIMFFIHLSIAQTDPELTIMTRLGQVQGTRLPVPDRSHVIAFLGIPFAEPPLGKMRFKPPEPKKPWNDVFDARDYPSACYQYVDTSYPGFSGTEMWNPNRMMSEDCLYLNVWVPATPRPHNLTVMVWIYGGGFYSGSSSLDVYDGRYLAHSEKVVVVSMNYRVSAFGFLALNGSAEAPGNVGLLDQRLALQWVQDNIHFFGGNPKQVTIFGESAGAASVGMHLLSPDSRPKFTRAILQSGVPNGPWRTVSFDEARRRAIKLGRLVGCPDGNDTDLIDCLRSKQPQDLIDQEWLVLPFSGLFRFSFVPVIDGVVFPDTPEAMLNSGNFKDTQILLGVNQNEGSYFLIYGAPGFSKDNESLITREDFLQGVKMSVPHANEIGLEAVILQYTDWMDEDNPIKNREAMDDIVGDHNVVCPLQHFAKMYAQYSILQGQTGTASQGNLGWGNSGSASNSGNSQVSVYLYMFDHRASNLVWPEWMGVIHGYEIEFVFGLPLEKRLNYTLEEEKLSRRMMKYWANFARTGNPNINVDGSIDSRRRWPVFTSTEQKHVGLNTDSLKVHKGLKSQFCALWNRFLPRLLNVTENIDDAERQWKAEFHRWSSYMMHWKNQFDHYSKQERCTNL
Chain of Acetylcholinesterase (Electrophorus electricus) (O42275 24-633 limits assumed): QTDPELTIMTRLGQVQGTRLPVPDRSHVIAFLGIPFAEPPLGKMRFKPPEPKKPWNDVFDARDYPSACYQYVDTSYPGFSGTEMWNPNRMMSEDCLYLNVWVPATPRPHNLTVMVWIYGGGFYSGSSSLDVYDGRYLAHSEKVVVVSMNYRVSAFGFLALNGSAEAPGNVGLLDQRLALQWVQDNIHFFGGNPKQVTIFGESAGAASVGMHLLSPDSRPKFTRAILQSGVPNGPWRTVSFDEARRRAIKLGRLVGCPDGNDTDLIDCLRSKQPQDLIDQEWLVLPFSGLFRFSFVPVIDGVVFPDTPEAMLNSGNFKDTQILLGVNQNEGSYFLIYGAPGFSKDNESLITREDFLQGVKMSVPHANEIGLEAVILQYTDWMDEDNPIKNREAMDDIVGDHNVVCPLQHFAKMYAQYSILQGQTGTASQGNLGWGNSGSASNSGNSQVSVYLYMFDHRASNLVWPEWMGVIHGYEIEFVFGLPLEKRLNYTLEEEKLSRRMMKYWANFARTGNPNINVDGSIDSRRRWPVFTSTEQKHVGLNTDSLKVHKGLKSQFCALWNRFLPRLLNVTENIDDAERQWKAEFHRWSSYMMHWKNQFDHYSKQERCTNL
Chain of Acetylcholinesterase (Torpedo californica, UniProt P04058) (P04058 whole entry): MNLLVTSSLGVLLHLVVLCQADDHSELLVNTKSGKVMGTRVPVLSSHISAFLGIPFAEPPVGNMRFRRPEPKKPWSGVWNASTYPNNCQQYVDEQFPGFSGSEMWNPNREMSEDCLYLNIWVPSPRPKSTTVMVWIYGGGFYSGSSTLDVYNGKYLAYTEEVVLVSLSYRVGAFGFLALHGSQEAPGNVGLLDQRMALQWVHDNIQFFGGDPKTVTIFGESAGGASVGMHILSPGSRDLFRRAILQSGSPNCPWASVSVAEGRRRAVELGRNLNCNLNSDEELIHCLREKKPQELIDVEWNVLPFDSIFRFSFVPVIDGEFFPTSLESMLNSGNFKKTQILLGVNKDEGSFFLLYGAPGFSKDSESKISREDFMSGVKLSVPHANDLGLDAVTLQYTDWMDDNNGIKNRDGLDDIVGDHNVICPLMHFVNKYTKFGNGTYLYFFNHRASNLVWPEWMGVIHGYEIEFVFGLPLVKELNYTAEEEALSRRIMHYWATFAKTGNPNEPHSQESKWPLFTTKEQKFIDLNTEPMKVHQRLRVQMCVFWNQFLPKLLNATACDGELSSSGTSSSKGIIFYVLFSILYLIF

COC(=O)N[C@H](C)c1nc2ccc(F)cc2s1
Ratio IC50 [1]: 0.15 | logP at 0.25 h [2]: 2.5 | IC50 [3]: 90.3 µM | IC50 [4]: 13.6 µM

C[C@@H](NC(=O)OCC(F)(F)F)c1nc2ccc(F)cc2s1
Ratio IC50 [1]: 0.64 | logP at 0.25 h [2]: 2.69 | IC50 [3]: 63.4 µM | IC50 [4]: 40.5 µM

CCN(C)C(=O)Oc1cccc([C@H](C)N(C)C)c1 [RIVASTIGMINE]
Ki [5]: 0.033 M⁻¹ s⁻¹

CCCCOC(=O)N[C@H](C)c1nc2ccc(F)cc2s1
Ratio IC50 [1]: 0.23 | logP at 0.25 h [2]: 4.82 | Activity [6]: tde | IC50 [3]: 40.9 µM | viability at 48 h, 100 µM [7]: 66.8% | Ratio IC50 [8]: < 10 | Activity [9]: Non-toxic | viability at 48 h, 250 µM [10]: 49.5% | viability at 48 h, 10 µM [11]: 80.2% | viability at 48 h, 1 µM [12]: 90.3% | viability at 48 h, 50 µM [13]: 88.7% | IC50 [4]: 9.26 µM

C[C@@H](NC(=O)OC(C)(C)C)c1nc2ccc(F)cc2s1
Ratio IC50 [1]: 0.46 | logP at 0.25 h [2]: 4.41 | IC50 [3]: 23.1 µM | IC50 [4]: 10.5 µM

C[C@@H](NC(=O)OCCCl)c1nc2ccc(F)cc2s1
Ratio IC50 [1]: 0.31 | logP at 0.25 h [2]: 3.09 | IC50 [3]: 41.2 µM | IC50 [4]: 12.7 µM

CC(C)OC(=O)N[C@H](C)c1nc2ccc(F)cc2s1
Ratio IC50 [1]: 0.51 | logP at 0.25 h [2]: 5.33 | IC50 [3]: 32.7 µM | IC50 [4]: 16.5 µM

C[C@@H](NC(=O)OCCBr)c1nc2ccc(F)cc2s1
Ratio IC50 [1]: 0.3 | logP at 0.25 h [2]: 3.17 | IC50 [3]: 38.4 µM | IC50 [4]: 11.4 µM

CC(C)COC(=O)N[C@H](C)c1nc2ccc(F)cc2s1
Ratio IC50 [1]: 0.32 | logP at 0.25 h [2]: 4.24 | IC50 [3]: 40.2 µM | IC50 [4]: 12.9 µM

C[C@@H](NC(=O)OCC(F)(F)Cl)c1nc2ccc(F)cc2s1
Ratio IC50 [1]: 0.32 | logP at 0.25 h [2]: 2.82 | IC50 [3]: 25.6 µM | viability at 48 h, 100 µM [7]: 85.7% | Ratio IC50 [8]: < 10 | viability at 48 h, 250 µM [10]: 74% | viability at 48 h, 10 µM [11]: 86.6% | inhibition [14]: Active | viability at 48 h, 1 µM [12]: 91.1% | viability at 48 h, 50 µM [13]: 89.6% | IC50 [4]: 8.14 µM

CCOC(=O)N[C@H](C)c1nc2ccc(F)cc2s1
Ratio IC50 [1]: 0.3 | inhibition [15]: Active | logP at 0.25 h [2]: 4.2 | IC50 [3]: 20.1 µM | viability at 48 h, 100 µM [7]: 85.6% | Ratio IC50 [8]: < 10 | viability at 48 h, 250 µM [10]: 77% | viability at 48 h, 10 µM [11]: 87.6% | viability at 48 h, 1 µM [12]: 87.4% | viability at 48 h, 50 µM [13]: 87.9% | IC50 [4]: 6.06 µM

C[C@@H](NC(=O)OCCCCl)c1nc2ccc(F)cc2s1
Ratio IC50 [1]: 2.07 | logP at 0.25 h [2]: 1.92 | IC50 [3]: 38.8 µM | IC50 [4]: 80.5 µM

C[C@@H](NC(=O)OCC(Cl)(Cl)Cl)c1nc2ccc(F)cc2s1
Ratio IC50 [1]: 11.1 | logP at 0.25 h [2]: 2.34 | IC50 [3]: 8.31 µM | IC50 [4]: 92.2 µM

C[C@@H](NC(=O)OCC(F)(F)C(F)F)c1nc2ccc(F)cc2s1
Ratio IC50 [1]: 0.27 | logP at 0.25 h [2]: 2.92 | inhibition [16]: Active | IC50 [3]: 25 µM | viability at 48 h, 100 µM [7]: 82.9% | Ratio IC50 [8]: < 10 | Activity [9]: Non-toxic | viability at 48 h, 250 µM [10]: 80.3% | Activity [17]: Toxic | viability at 48 h, 10 µM [11]: 85.3% | viability at 48 h, 1 µM [12]: 93% | viability at 48 h, 50 µM [13]: 89.3% | IC50 [4]: 6.75 µM

C[C@@H](NC(=O)OCC(F)(F)C(F)(F)C(F)(F)F)c1nc2ccc(F)cc2s1
Ratio IC50 [1]: 1.1 | logP at 0.25 h [2]: 3.2 | IC50 [3]: 74.5 µM | IC50 [4]: 81.9 µM

COCCOC(=O)N[C@H](C)c1nc2ccc(F)cc2s1
Ratio IC50 [1]: 0.85 | logP at 0.25 h [2]: 3.35 | IC50 [3]: 66.3 µM | IC50 [4]: 56.2 µM

CCCOC(=O)N[C@H](C)c1nc2ccc(F)cc2s1
Ratio IC50 [1]: 0.38 | logP at 0.25 h [2]: 4.56 | IC50 [3]: 34.6 µM | IC50 [4]: 13.1 µM
